Experimental data: publication PMC11149917, “Translational and Therapeutic Evaluation of RAS-GTP Inhibition by RMC-6236 in RAS-Driven Cancers” (Cancer Discovery, 2024)

What was measured:
[1] = test system: oncogenic Kras-driven autochthonous lung tumors; test: Autochthonous tumors in GEMMs of lung cancer (barcode sequencing); type: in vivo, mouse; settings: 20 mg/kg po qd, 3 weeks
[2] = test system: DUSP6 mRNA in human tumors; test: PK/PD model scaled to humans
Excerpt: Tumor growth was modeled using the approach previously described by Simeoni and colleagues ([45]). As detailed previously, tumor volume data were collected from mice bearing either NCI-H441 or Capan-2 xenograft tumors in 28-day efficacy studies (Supplementary Table S9). Estimated intrinsic tumor growth parameters include initial tumor volume, W0, which was set to the observed initial tumor volume, and the exponential and linear growth rates constants, λ0 and λ1, which were estimated from vehicle-treated animal tumor growth. Drug-specific parameters include a measure of drug potency, k2, and a transfer rate constant, k1, which describes cell death kinetics. A tumor stasis concentration threshold (CT) was calculated as λ0/k2 and converted to a human equivalent by adjusting for species differences in blood-plasma partitioning and plasma protein binding as discussed in Supplementary Methods. Human PK parameters were predicted via multispecies allometric scaling or assigned as the preclinical average and used to simulate mean steady-state human exposure at various dose levels.
The mouse PK/PD model was scaled to humans by incorporating human-specific plasma protein binding, blood–plasma partitioning, and estimated human blood PK parameters. The tumor partitioning rate constants were held constant from the mouse model under the assumption that RMC-6236 will partition similarly from free plasma into human-derived xenografts or clinical tumor tissue. Similarly, parameters governing DUSP6 expression were kept the same and assumed to reflect a similarly sensitive tumor in humans. Human simulations were conducted for multiple clinical dose levels using mean PK parameters and assuming an average body weight of 70 kg.

SMILES: CCn1c(-c2cc(N3CCN(C)CC3)cnc2[C@H](C)OC)c2c3cc(ccc31)-c1csc(n1)C[C@H](NC(=O)[C@H]1C[C@@H]1C)C(=O)N1CCC[C@H](N1)C(=O)OCC(C)(C)C2 [RMC-6236]
- tumor burden relative to vehicle-treated mice ([1]; Kras G12C, G12D, G12V, G12A, G13D, Q61H tumors): significant and consistent reductions in tumor burden
- tumor burden relative to vehicle-treated mice ([1]; Kras^G12C with secondary H95D or Y96C): significant reductions in tumor burden
- Ka ([2]; Human Predictions): 2 h⁻¹
- V/F ([2]; Human Predictions): 10.83 L/kg
- estimated maximal DUSP6 suppression in human tumors ([2]; daily dose of approximately 100 mg, steady state, transient): ≥ 90%
- estimated mean DUSP6 suppression in human tumors ([2]; daily dose of approximately 300 mg, across the dosing interval at steady state): ≥ 90%
